Experimental data taken from US8323674B2, “Synergistic biocide composition comprising 2-methylisothiazoline-3-one” (Thor GmbH, priority 2000, dated 2012).

Key:
Type in all cases: cell-based
Pseudomonas aeruginosa [1] = assay: MIC and synergistic index of MIT + BBIT in Müller-Hinton broth, 72 h/25° C.; settings: for Synergistic index Qa/QA + Qb/QB: BBIT MIC of 500 ppm used as basis; for MIC value: only one biocide employed
Experimental: (§1) The synergistic index is calculated by the method of F. C. Kull et al., Applied Microbiology, vol. 9 (1961), p. 538. Here, the synergistic index is calculated using the following formula: Synergistic index SI=Qa/QA+Qb/QB.
(§2) If the synergistic index has a value of above 1, this means that antagonism is present. If the synergistic index assumes a value of 1, this means that an additive effect of the two biocides exists. If the synergistic index assumes a value of less than 1, this means that synergism of the two biocides exists.
(§3) Again, the experimental batches contained a Müller-Hinton broth as the nutrient medium. The cell density was 10^6 cells/ml. The incubation time was 72 hours at 25° C. Each sample was incubated in a shaker-incubator at 120 rpm.

Pseudomonas aeruginosa [2] = assay: MIC and synergistic index of MIT + BNP in Müller-Hinton broth, 72 h/25° C.; settings: for MIC: Pseudomonas aeruginosa
Experimental: as §1, §2, §3

Pseudomonas aeruginosa [3] = assay: MIC and synergistic index of MIT + HCHO in Müller-Hinton broth, 96 h/25° C.; settings: for MIC: Pseudomonas aeruginosa; for Synergistic index Qa/QA + Qb/QB: method of Kull
Experimental: In addition to the biocide component and water, the aqueous mixtures also comprised a nutrient medium, viz. a commercially available Müller-Hinton broth. The cell density was 10^6 cells/ml. The incubation time was 96 hours at 25° C. Each sample was incubated in a shaker-incubator at 120 rpm.
as §1, §2

Pseudomonas aeruginosa [4] = assay: MIC and synergistic index of MIT + PMG in Müller-Hinton broth, 48 h/25° C.; settings: for MIC value: only one biocide employed
Experimental: as §1, §2
Again, the experimental batches contained a Müller-Hinton broth as the nutrient medium. The cell density was 10^6 cells/ml. The incubation time was 48 hours at 25° C. Each sample was incubated in a shaker-incubator at 120 rpm.

Pseudomonas aeruginosa [5] = assay: MIC and synergistic index of MIT + OPP in Müller-Hinton broth, 72 h/25° C.; settings: for MIC: Pseudomonas aeruginosa, 72 h
Experimental: as §1, §2, §3

Pseudomonas aeruginosa [6] = assay: MIC and synergistic index of MIT + ZnPy in Müller-Hinton broth, 72 h/25° C.; settings: for MIC value: only one biocide employed
Experimental: as §1, §2, §3

Pseudomonas aeruginosa [7] = assay: MIC and synergistic index of MIT + NaPy in Müller-Hinton broth, 96 h/25° C.; settings: for MIC value: only one biocide employed
Experimental: as §1, §2
Again, the experimental batches contained a Müller-Hinton broth as the nutrient medium. The cell density was 10^6 cells/ml. The incubation time was 96 hours at 25° C. Each sample was incubated in a shaker-incubator at 120 rpm.

Pseudomonas aeruginosa [8] = assay: MIC and synergistic index of MIT + HMBIT in Müller-Hinton broth, 48 h/30° C.; settings: for MIC value: biocide used alone, 48 hours at 30° C.
Experimental: as §1, §2
Again, the experimental batches contained a Müller-Hinton broth as nutrient medium. The cell density was 10^6 microorganisms/ml. […] Each sample was incubated in a shaker-incubator at 120 rpm.

Pseudomonas aeruginosa [9] = assay: MIC and synergistic index of MIT + BAC in Müller-Hinton broth, 48 h/25° C.; settings: for MIC value: biocide used alone
Experimental: as §1, §2
Again, the experimental batches contained a Müller-Hinton broth as nutrient medium. The cell density was 10^6 microorganisms/ml. The incubation time was 48 hours at 25° C. Each sample was incubated in a shaker-incubator at 120 rpm.

[10] = Pseudomonas aeruginosa, incubation 48 h/25° C.

CCCCn1sc2ccccc2c1=O [BBIT, N-butyl-1,2-benzoisothiazolin-3-one]
MIC at Total concentration MIT + BBIT Qa + Qb (Pseudomonas aeruginosa [1]): 500 ppm
Synergistic index Qa/QA + Qb/QB (Pseudomonas aeruginosa [1]): 1.00
Qb/QB (Pseudomonas aeruginosa [1]; QB = 500 ppm used as basis): 1.00
MIC at BBIT concentration Qb (Pseudomonas aeruginosa [1]; for BBIT alone 500 ppm used as the basis for the calculation): 500 ppm
MIC value (Pseudomonas aeruginosa [1]): over 500 ppm

O=[N+]([O-])C(Br)(CO)CO [BNP, 2-bromo-2-nitro-1,3-propanediol]
Qb/QB (Pseudomonas aeruginosa [2]): 1.00
Synergistic index Qa/QA + Qb/QB (Pseudomonas aeruginosa [2]): 1.00
MIC (Pseudomonas aeruginosa [2]; only one biocide employed, read-out: MIC value): 20 µg/mL
MIC (Pseudomonas aeruginosa [2]; read-out: MIC at BNP concentration Qb): 20 µg/mL
MIC (Pseudomonas aeruginosa [2]; read-out: MIC at Total concentration of MIT + BNP Qa + Qb): 20 µg/mL

C=O [HCHO, formaldehyde]
Qb/QB (Pseudomonas aeruginosa [3]): 1.00
MIC (Pseudomonas aeruginosa [3]; only one biocide used, read-out: MIC value): 100 µg/mL
MIC (Pseudomonas aeruginosa [3]; read-out: MIC at HCHO concentration Qb): 100 µg/mL
MIC (Pseudomonas aeruginosa [3]; read-out: MIC at Total concentration of MIT + HCHO Qa + Qb): 100 µg/mL
Synergistic index Qa/QA + Qb/QB (Pseudomonas aeruginosa [3]): 1.00

Cn1sccc1=O [MIT, 2-methylisothiazolin-3-one]
MIC at MIT concentration Qa (Pseudomonas aeruginosa [3]): 60 ppm
MIC at Total concentration of MIT + HCHO Qa + Qb (Pseudomonas aeruginosa [3]): 60 ppm
Qa/QA (Pseudomonas aeruginosa [3]): 1.00
Synergistic index Qa/QA + Qb/QB (Pseudomonas aeruginosa [3]): 1.00
MIC value (Pseudomonas aeruginosa [3]; only one biocide used): 60 ppm
MIC at MIT concentration Qa (Pseudomonas aeruginosa [2]): 40 ppm
MIC at Total concentration of MIT + BNP Qa + Qb (Pseudomonas aeruginosa [2]): 40 ppm
Qa/QA (Pseudomonas aeruginosa [2]): 1.00
Synergistic index Qa/QA + Qb/QB (Pseudomonas aeruginosa [2]): 1.00
MIC value (Pseudomonas aeruginosa [2]; only one biocide employed): 40 ppm
MIC at MIT concentration Qa (Pseudomonas aeruginosa [4]): 40 ppm
MIC at Total concentration MIT + PMG Qa + Qb (Pseudomonas aeruginosa [4]): 40 ppm
Qa/QA (Pseudomonas aeruginosa [4]): 1.00
Synergistic index Qa/QA + Qb/QB (Pseudomonas aeruginosa [4]): 1.00
MIC value (Pseudomonas aeruginosa [4]): 40 ppm
MIC at MIT concentration Qa (Pseudomonas aeruginosa [5]; 72 h/25° C.): 40 ppm
MIC at Total concentration MIT + OPP Qa + Qb (Pseudomonas aeruginosa [5]; 72 h/25° C.): 40 ppm
Qa/QA (Pseudomonas aeruginosa [5]; 72 h/25° C.): 1.00
Synergistic index Qa/QA + Qb/QB (Pseudomonas aeruginosa [5]; 72 h/25° C.): 1.00
MIC value (Pseudomonas aeruginosa [5]; only one biocide employed, 72 h/25° C.): 40 ppm
Synergistic index Qa/QA + Qb/QB (Pseudomonas aeruginosa [6]): 1.00
MIC at MIT concentration Qa (Pseudomonas aeruginosa [6]; 72 h/25° C.): 40 ppm
MIC at Total concentration MIT + ZnPy Qa + Qb (Pseudomonas aeruginosa [6]; 72 h/25° C.): 40 ppm
Qa/QA (Pseudomonas aeruginosa [6]; 72 h/25° C.): 1.00
MIC value (Pseudomonas aeruginosa [6]; 72 h/25° C.): 40 ppm
MIC at MIT concentration Qa (Pseudomonas aeruginosa [7]): 60 ppm
MIC at Total concentration MIT + NaPy Qa + Qb (Pseudomonas aeruginosa [7]): 60 ppm
Qa/QA (Pseudomonas aeruginosa [7]): 1.00
Synergistic index Qa/QA + Qb/QB (Pseudomonas aeruginosa [7]): 1.00
MIC value (Pseudomonas aeruginosa [7]): 60 ppm
MIC at MIT concentration Qa (Pseudomonas aeruginosa [1]): 40 ppm
MIC at Total concentration MIT + BBIT Qa + Qb (Pseudomonas aeruginosa [1]): 40 ppm
Qa/QA (Pseudomonas aeruginosa [1]): 1.00
Synergistic index Qa/QA + Qb/QB (Pseudomonas aeruginosa [1]): 1.00
MIC value (Pseudomonas aeruginosa [1]): 40 ppm
MIC at MIT concentration Qa (Pseudomonas aeruginosa [8]): 50 ppm
MIC at Total concentration MIT + HMBIT Qa + Qb (Pseudomonas aeruginosa [8]): 50 ppm
Qa/QA (Pseudomonas aeruginosa [8]): 1.00
Synergistic index Qa/QA + Qb/QB (Pseudomonas aeruginosa [8]): 1.00
MIC value (Pseudomonas aeruginosa [8]): 50 ppm
Qa/QA (Pseudomonas aeruginosa [9]; MIT concentration in mixture at MIC / MIC of MIT alone (40 ppm), 48 h/25° C.): 1.00
MIC at MIT concentration Qa (Pseudomonas aeruginosa [9]; MIT share of the MIC of the MIT + BAC mixture, Pseudomonas aeruginosa, incubation 48 h/25° C.): 40 ppm
MIC at Total concentration MIT + BAC Qa + Qb (Pseudomonas aeruginosa [9]; [10]): 40 ppm
Synergistic index Qa/QA + Qb/QB (Pseudomonas aeruginosa [9]; [10]): 1.00
MIC value (Pseudomonas aeruginosa [9]; 48 h/25° C.): 40 ppm

[Na+].[O-][n+]1ccccc1[S-] [NaPy, sodium pyrithione]
MIC at NaPy concentration Qb (Pseudomonas aeruginosa [7]): 200 ppm
MIC at Total concentration MIT + NaPy Qa + Qb (Pseudomonas aeruginosa [7]): 200 ppm
Qb/QB (Pseudomonas aeruginosa [7]): 1.00
Synergistic index Qa/QA + Qb/QB (Pseudomonas aeruginosa [7]): 1.00
MIC value (Pseudomonas aeruginosa [7]): 200 ppm

Oc1ccccc1-c1ccccc1 [OPP, o-phenylphenol]
Qb/QB (Pseudomonas aeruginosa [5]; 72 h/25° C.): 1.00
Synergistic index Qa/QA + Qb/QB (Pseudomonas aeruginosa [5]; 72 h/25° C.): 1.00
MIC (Pseudomonas aeruginosa [5]; read-out: MIC at OPP concentration Qb): 750 µg/mL
MIC (Pseudomonas aeruginosa [5]; read-out: MIC at Total concentration MIT + OPP Qa + Qb): 750 µg/mL
MIC (Pseudomonas aeruginosa [5]; read-out: MIC value): 750 µg/mL

N-hydroxymethyl-1,2-benzoisothiazolin-3-one [HMBIT]
MIC at HMBIT concentration Qb (Pseudomonas aeruginosa [8]): 150 ppm
MIC at Total concentration MIT + HMBIT Qa + Qb (Pseudomonas aeruginosa [8]): 150 ppm
Qb/QB (Pseudomonas aeruginosa [8]): 1.00
Synergistic index Qa/QA + Qb/QB (Pseudomonas aeruginosa [8]): 1.00
MIC value (Pseudomonas aeruginosa [8]): 150 ppm

dimethylbenzylalkonium chloride [BAC]
Qb/QB (Pseudomonas aeruginosa [9]; BAC concentration in mixture at MIC / MIC of BAC alone (80 ppm), 48 h/25° C.): 1.00
MIC at BAC concentration Qb (Pseudomonas aeruginosa [9]; BAC share of the MIC of the MIT + BAC mixture, Pseudomonas aeruginosa, incubation 48 h/25° C.): 80 ppm
MIC at Total concentration MIT + BAC Qa + Qb (Pseudomonas aeruginosa [9]; [10]): 80 ppm
Synergistic index Qa/QA + Qb/QB (Pseudomonas aeruginosa [9]; [10]): 1.00
MIC value (Pseudomonas aeruginosa [9]; 48 h/25° C.): 80 ppm

polyhexamethylenebiguanide [PMG]
MIC at PMG concentration Qb (Pseudomonas aeruginosa [4]): 30 ppm
MIC at Total concentration MIT + PMG Qa + Qb (Pseudomonas aeruginosa [4]): 30 ppm
Qb/QB (Pseudomonas aeruginosa [4]): 1.00
Synergistic index Qa/QA + Qb/QB (Pseudomonas aeruginosa [4]): 1.00
MIC value (Pseudomonas aeruginosa [4]): 30 ppm

zinc pyrithione [ZnPy]
MIC at Total concentration MIT + ZnPy Qa + Qb (Pseudomonas aeruginosa [6]; 72 h/25° C.): 100 ppm
Qb/QB (Pseudomonas aeruginosa [6]; 72 h/25° C., QB = 100 ppm used as basis): 1.00
Synergistic index Qa/QA + Qb/QB (Pseudomonas aeruginosa [6]; 72 h/25° C., ZnPy MIC of 100 ppm used as basis): 1.00
MIC at ZnPy concentration Qb (Pseudomonas aeruginosa [6]; 72 h/25° C., for ZnPy alone 100 ppm used as the basis for the calculation): 100 ppm
MIC value (Pseudomonas aeruginosa [6]; 72 h/25° C.): over 100 ppm
